From patent US10004701B2, “Methods and compositions for treating infection” (UNIVERSITY OF ROCHESTER, priority 2012, dated 2018) come the findings set out here.

In brackets after ≈: the same amount, converted by molar mass. Where two headings read alike, the source gives them in different places.

Test [1] relates to Enterococcus faecium 824-05. In words: MIC testing. Conditions: 82405; Enterococcus faecium 824-05; read-out: MIC. The format is cell-based.
The test system of a further test is Staphylococcus aureus. As to the kind of experiment: MIC testing. The format is cell-based.
The test system of test [2] is Klebsiella pneumoniae cKP1. In words: MIC testing. The format is cell-based. The settings on record: Klebsiella pneumoniae cKP1; read-out: MIC.
For test [3], the system named is Acinetobacter baumannii 98-37-09. In words: MIC testing. Conditions: 983709; Acinetobacter baumannii 98-37-09; read-out: MIC. The format is cell-based.
The subject of test [4] is Pseudomonas aeruginosa PA01. As to the kind of experiment: MIC testing. The format is cell-based. Conditions: read-out: MIC.
Test [5] concerns Enterobacter cloacae PMD1001. In words: MIC testing. The format is cell-based.
The subject of a further test is Escherichia coli 8295. In words: MIC testing. The format is cell-based.
In test [6] the test system is Pseudomonas aeruginosa PA01. In words: AK assay 96-well format. The format is cell-based.
For a further test, the system named is E. faecium. As to the kind of experiment: AK assay 384-well format, Prestwick library screening. Type of test: cell-based, Enterococcus faecium. The settings on record: Enterococcus faecium, 3 h; planktonic E. faecium; 50 μM final drug concentration; 384-well; cutoff for positive-scoring molecules 3-fold increase; read-out: AK-based Prestwick Library Screening Results: E. faecium (increase in extracellular AK activity).

Test [7] deals with S. aureus strain USA300-0114. Described as above. Conditions: Staphylococcus aureus, USA300, 3 h; planktonic S. aureus; 50 μM final drug concentration; 384-well; cutoff for positive-scoring molecules 3-fold increase; read-out: AK-based Prestwick Library Screening Results: S. aureus (increase in extracellular AK activity). Type of test: cell-based, Staphylococcus aureus.
Another test deals with K. pneumoniae. The test is described as above. Type of test: cell-based, Klebsiella pneumoniae. Conditions: Klebsiella pneumoniae, 3 h; planktonic K. pneumoniae; 50 μM final drug concentration; 384-well; cutoff for positive-scoring molecules 3-fold increase; read-out: AK-based Prestwick Library Screening Results: K. pneumoniae (increase in extracellular AK activity).
Test [8] deals with A. baumannii strain 98-37-09. The test is described as above. The format is cell-based, Acinetobacter baumannii. The settings on record: Acinetobacter baumannii, 983709, 3 h; planktonic A. baumannii; 50 μM final drug concentration; 384-well; cutoff for positive-scoring molecules 3-fold increase; read-out: AK-based Prestwick Library Screening Results: A. baumannii (increase in extracellular AK activity).

In another test the test system is P. aeruginosa. The test is described as above. Type of test: cell-based, Pseudomonas aeruginosa. Conditions: Pseudomonas aeruginosa, 3 h; planktonic P. aeruginosa; 50 μM final drug concentration; 384-well; cutoff for positive-scoring molecules 3-fold increase; read-out: AK-based Prestwick Library Screening Results: P. aeruginosa (increase in extracellular AK activity).

In the next test the test system is E. cloacae. The test is described as above. Type of test: cell-based, Enterobacter cloacae. Conditions: Enterobacter cloacae, 3 h; planktonic E. cloacae; 50 μM final drug concentration; 384-well; cutoff for positive-scoring molecules 3-fold increase; read-out: AK-based Prestwick Library Screening Results: E. cloacae (increase in extracellular AK activity).
The test system of a further test is E. coli. The test is described as above. Type of test: cell-based, Escherichia coli. Conditions: Escherichia coli, 3 h; planktonic E. coli; 50 μM final drug concentration; 384-well; cutoff for positive-scoring molecules 3-fold increase; read-out: AK-based Prestwick Library Screening Results: E. coli (increase in extracellular AK activity).
Test [9] relates to E. coli and each of the ESKAPE pathogens. As to the kind of experiment: AK-based Prestwick library screening, summary across organisms. The format is cell-based. Conditions: 50 μM, cutoff 3-fold increase in AK.

As to `CC[C@H]1OC(=O)[C@H](C)[C@@H](O[C@H]2C[C@@](C)(OC)[C@@H](O)[C@H](C)O2)[C@H](C)[C@@H](O[C@@H]2O[C@H](C)C[C@H](N(C)C)[C@H]2O)[C@](C)(O)C[C@@H](C)C(=O)[C@H](C)[C@@H](O)[C@]1(C)O` [Erythromycin, erythromycin], the minimum inhibitory concentration (MIC) in test [1] is greater than 256 µg/mL; against Staphylococcus aureus (Staphylococcus aureus) it was 2 µg/mL (≈ 2.73 µM); with Staphylococcus aureus (Staphylococcus aureus USA300-0114, read-out: MIC), 64 µg/mL (≈ 87.2 µM); in test [2] it was greater than 256 µg/mL; in test [3], 16 µg/mL (≈ 21.8 µM); in [4] it was 32 µg/mL (≈ 43.6 µM). In addition, the minimum inhibitory concentration (MIC) (in test [5]; with Escherichia coli 8295) was 256 µg/mL (≈ 349 µM) throughout. In addition, the results for the “Fold increase in AK signal” value in test [6] (treatment 0.5×MIC) and in test [6] (treatment 1.0×MIC) were 3 fold and 1 fold, respectively. Moreover, the fold induction at 50 µM in the test on E. faecium was 1; in test [7] it was 8.2; in the test on K. pneumoniae, 1; in test [8], 1.5; with P. aeruginosa, 0.7; with E. cloacae, 1.6. In the test on E. coli, the fold induction at 50 µM worked out at 1. The “activity in AK Prestwick screen, all species tested” value in test [9] is given as “not identified as being active”.
